From patent publication US20250339409A1, “USES OF PAN BET INHIBITORS” (VYNE THERAPEUTICS INC., priority 2021, published 2025)
Like-named read-outs stand apart in the source and are kept apart here.

Legend:
[1] = test system: CXCL10, IL17α, IL22, IL36γ, CCL20, SerpinB4 gene expression in Th17 stimulated human skin; assay: Th17 stimulated human skin explants, RT-qPCR of biomarkers; assay type: cell-based; details: calculated to Th17 stimulated control, three skin donors; for inhibition at 10 µM: Homo sapiens
Excerpt: (§1) Human skin biopsy tissue was stimulated to induce a Th17 immuno-phenotype using a method derived from Feghali-Bostwick et al. Induction of a Th17 phenotype in human skin—a mimic of dermal inflammatory diseases, Methods and Protocols, 2, 45 (2019). The pharmacodynamic assay described therein involves a similar paradigm to elicit a Th2 response and is used to evaluate the therapeutic potential of the active compounds (e.g., BETi1; and
(§2) Freshly excised healthy human skin tissue from abdominoplasties is defatted, cleaned and sectioned into 7 mm biopsies. The biopsies are placed in Transwell® inserts with the epidermis apical and exposed to air and the dermis submerged in media in the basal chamber. The biopsies are pre-treated overnight at 37° C., 5% CO2 with different compounds and controls added to the media in the basal chamber.
(§3) The next day, contents of the basal chamber is replaced with fresh media containing the test compound (listed below) and a stimulation cocktail for either Th2 inflammation (proprietary of service provider cocktail) or Th17 inflammation (mix of antibodies against CD3, CD28, IL-4, IFNγ and recombinant IL-1β, IL-6, IL-21, TGF-β). The biopsies are incubated at 37° C., 5% CO2 for a further 24 hrs.
(§4) A list of all the treatments is provided below: • 1. Untreated control (for both stimulations) • 2. Th2 stimulated control • 3. Th17 stimulated control • 4. Th2+BETia at 0.01, 0.04, 0.16, 0.63, 2.50, and 10 μM • 5. Th2+BETi1 at 0.01, 0.04, 0.16, 0.63, 2.50, and 10 μM • 6. Th2+Ruxolitinib at 0.01, 0.04, 0.16, 0.63, 2.50, and 10 μM • 7. Th2+betamethasone valerate 210 μM (equivalent to 0.01%) • 8. Th17+BETia at 10 μM • 9. Th17+BETi1 at 10 μM • 10. Th17+Ruxolitinib at 10 μM • 11. Th17+betamethasone valerate 210 μM (equivalent to 0.01%)
(§5) After harvesting, the biopsies are cut in half, and one half is homogenized and used for RNA extraction by standard methods and inflammatory pathways is assessed by RT-qPCR. The ability of BETi1 or BETia to inhibit the activity of up to six biomarkers per stimulation is reported as percent activity calculated to stimulated control and fold change in gene expression calculated to untreated control with respect to Th2 (IL4, IL13, IL31, CCL17, CCL26, CCL2) and Th17 (CXCL10, IL17α, IL22, IL36γ, CCL20, SerpinB4). Statistical analysis is performed on data sets from all 3 donors combined and compares the percent inhibition of each biomarker by each treatment calculated to its respective vehicle.
(§6) qPCR values were calculated using the relative quantification approach outlined by Livak, et al (2001) (Section 9, Reference 2). The Ct values (threshold cycle) defined as the fractional cycle number at which the amount of amplified target reaches a fixed threshold, were normalised to the Ct value of an internal biomarker or ‘housekeeping gene’ (GAPDH). The higher limit of detection was set at a Ct value of 40, and any target having not reached Ct by 40 cycles was set to this value. The delta Ct values (dt(Ct)) refers to the Ct of the gene of interest minus the Ct of the internal biomarker. The ddt(Ct) is the dt(Ct) value of the gene minus the average dt(Ct) value of the untreated samples. The ddt(Ct) is converted to power by the equation; =power(2,dt(Ct)). Fold change was calculated as ratio of the power of the gene of interest divided by the average power of the untreated samples. This normalizes the untreated samplers to a value of 1. For the comparison of multiple skin donors, the stimulated samples were normalized to 100% maximum activity (such to normalize variability between different skin donors). Percent activity was calculated as the percent increase or decrease in stimulation compared to the stimulated samples set at 100% maximum activity. Percent change was calculated as: Inhibition=(100−(avg % activity/stimulated)*100). Statistical analysis was performed using One-way ANOVA with Dunnett's Multiple Comparisons (non parametric). […]

[2] = test system: IL4, IL13, IL31, CCL17, CCL26, CCL2 gene expression in Th2 stimulated human skin; assay: Th2 stimulated human skin explants, RT-qPCR of biomarkers; assay type: cell-based; details: for inhibition at 0.01 µM / inhibition at 0.04 µM / inhibition at 0.16 µM / inhibition at 0.63 µM / inhibition at 2.5 µM / inhibition at 10 µM: Homo sapiens; for inhibition at 2.5 µM: 2.50 μM
Excerpt: as §1, §2, §3, §4, §5, §6

[3] = 10 μM, read-out: % inhibition CCL20
[4] = 10 μM, read-out: % inhibition CXCL10
[5] = 10 μM, read-out: % inhibition IL22
[6] = 10 μM, read-out: % inhibition Serpinβ4
[7] = calculated to Th2 stimulated control, read-out: % Inhibition CCL17
[8] = calculated to Th2 stimulated control, read-out: % Inhibition CCL26
[9] = calculated to Th2 stimulated control, read-out: % Inhibition IL31
[10] = calculated to Th2 stimulated control, read-out: % inhibition CCL2
[11] = calculated to Th2 stimulated control, read-out: % inhibition IL4
[12] = calculated to Th2 stimulated control, read-out: % inhibition IL13
[13] = 10 μM, calculated to Th2 stimulated control, read-out: % Inhibition CCL26
[14] = 10 μM, calculated to Th2 stimulated control, read-out: % inhibition CCL2
[15] = 10 μM, calculated to Th2 stimulated control, read-out: % inhibition IL4
[16] = 10 μM, calculated to Th2 stimulated control, read-out: % inhibition IL13
[17] = 210 μM, calculated to Th2 stimulated control

SMILES	inhibition at 10 µM [1, 3] [%]	inhibition at 10 µM [1, 4] [%]	inhibition at 10 µM [1, 5] [%]	inhibition at 10 µM [1, 6] [%]	inhibition at 0.01 µM [2, 7] [%]	inhibition at 0.01 µM [2, 8] [%]	inhibition at 0.01 µM [2, 9] [%]	inhibition at 0.01 µM [2, 10] [%]	inhibition at 0.01 µM [2, 11] [%]	inhibition at 0.01 µM [2, 12] [%]	inhibition at 0.04 µM [2, 8] [%]	inhibition at 0.04 µM [2, 10] [%]	inhibition at 0.04 µM [2, 11] [%]	inhibition at 0.16 µM [2, 9] [%]	inhibition at 0.16 µM [2, 10] [%]	inhibition at 0.16 µM [2, 12] [%]	inhibition at 0.63 µM [2, 7] [%]	inhibition at 0.63 µM [2, 8] [%]	inhibition at 0.63 µM [2, 10] [%]	inhibition at 0.63 µM [2, 12] [%]	also measured
CCNC(=O)c1cc2c(-c3ccn(C)c(=O)c3Oc3c(C)cc(F)cc3C)cn(C)c(=O)c2[nH]1 [BETia]	40.1	71.3	79.7	71.2	28.2	8.3	< 0	< 0	< 0	22	~38	< 0	< 0	19.1	< 0	27.7	25.4	2.8	< 0	22.3	inhibition at 10 µM ([1]; 10 μM, read-out: % inhibition IL36γ): 78.2%; inhibition at 0.04 µM [2, 9]: < 0%; inhibition at 0.04 µM [2, 12]: 15.8%; inhibition at 0.16 µM [2, 7]: 31.8%; inhibition at 0.16 µM [2, 8]: 46.3%; inhibition at 0.16 µM [2, 11]: 56.8%; inhibition at 2.5 µM [2, 7]: 30%; inhibition at 2.5 µM [2, 8]: 8%; inhibition at 2.5 µM [2, 10]: < 0%; inhibition at 2.5 µM [2, 11]: 57.5%; inhibition at 2.5 µM [2, 12]: 24.9%; inhibition at 10 µM [2, 13]: ~8%; inhibition at 10 µM [2, 14]: 21.5%; inhibition at 10 µM [2, 15]: ~76%; inhibition at 10 µM [2, 16]: 53.4%
CCCCC(=O)O[C@]1(C(=O)CO)[C@@H](C)C[C@H]2[C@@H]3CCC4=CC(=O)C=C[C@]4(C)[C@@]3(F)[C@@H](O)C[C@@]21C [Betamethasone, betamethasone valerate, reference compound]																					% inhibition CCL20 ([1]; 10 μM): N/I (N/I indicates no inhibition.); % inhibition IL17α ([1]; 210 μM): 73.1%; % inhibition IL36γ ([1]; 210 μM): 77.7%; % Inhibition IL31 ([2]; 10 μM, calculated to Th2 stimulated control): 87.4%; % Inhibition CCL26 [2, 17]: 64.4%; % inhibition IL13 [2, 17]: 97.8%
N#CC[C@H](C1CCCC1)n1cc(-c2ncnc3[nH]ccc23)cn1 [Ruxolitinib, reference compound]	< 0	~99	~99	92	23.2	14	< 0	< 0	< 0	2.3	35.3	< 0	41.9	57.9	< 0	66.3	34	88.3	< 0	48.8	inhibition at 10 µM ([1]; 10 μM, read-out: % inhibition IL17α): 2.8%; inhibition at 0.04 µM [2, 7]: 47.7%; inhibition at 0.63 µM [2, 9]: 55.9%; inhibition at 0.63 µM [2, 11]: 53.8%; inhibition at 2.5 µM [2, 9]: < 0%; inhibition at 2.5 µM [2, 10]: 33%; inhibition at 2.5 µM [2, 11]: 20.5%; inhibition at 2.5 µM [2, 12]: 18.5%; inhibition at 10 µM ([2]; 10 μM, calculated to Th2 stimulated control, read-out: % Inhibition CCL17): 89.9%; inhibition at 10 µM [2, 13]: 98.5%; inhibition at 10 µM ([2]; 10 μM, calculated to Th2 stimulated control, read-out: % Inhibition IL31): 29.9%; inhibition at 10 µM [2, 14]: ~57%; inhibition at 10 µM [2, 15]: 48.5%; inhibition at 10 µM [2, 16]: ~54%; highest percent inhibition of CCL17 gene expression ([2]; Th2-mediated stimulation, 10 μM): ca. 90%
